Source: patent US9045248B2 (priority 2007, dated 2015)

Biological target: wild-type cap-binding domain of PB2 (Influenza A virus, UniProt P31345, R389K)
Set-up: species or system Influenza A/Victoria/3/1975(H3N2)

SMILES: Nc1nc2c(ncn2[C@@H]2O[C@H](COP(=O)(O)OP(=O)(O)OP(=O)(O)O)[C@@H](O)[C@H]2O)c(=O)[nH]1 [GTP]
- Kd: 1020 ± 100 µM

SMILES: C[n+]1cn([C@@H]2O[C@H](COP(=O)(O)OP(=O)(O)OP(=O)(O)O)[C@@H](O)[C@H]2O)c2nc(N)[nH]c(=O)c21 [m^7GTP, 7-methyl-guanosine triphosphate]
- Kd: 177 ± 34 µM
